Data on 6 molecules can be found in ChEMBL document CHEMBL1127747, “The effect of the aromatic rings of taxol on biological activity and solution conformation: synthesis and evaluation of saturated taxol and taxotere analogues” (1994).

The test system of one test is B16. The experiment in a line: In vitro cytotoxic activity was evaluated against B16 melanoma cells relative to taxol; ED50/ED50. The class given is functional.
The nature of test [1]: In vitro cytotoxic activity was evaluated by microtubule assembly assay relative to taxol; ED50/ED50. Format: functional.

Structures are written as SMILES.

In the case of `CC(=O)O[C@H]1C(=O)[C@@]2(C)C([C@H](OC(=O)C3CCCCC3)[C@]3(O)C[C@H](OC(=O)[C@H](O)C(NC(=O)C4CCCCC4)C4CCCCC4)C(C)=C1C3(C)C)[C@]1(OC(C)=O)CO[C@@H]1C[C@@H]2O` (some centres not stated), the Ratio in the test with B16 is 1.6; in test [1], 0.47.
For `CC(=O)O[C@H]1C(=O)[C@@]2(C)C([C@H](OC(=O)c3ccccc3)[C@]3(O)C[C@H](OC(=O)[C@H](O)C(NC(=O)c4ccccc4)C4CCCCC4)C(C)=C1C3(C)C)[C@]1(OC(C)=O)CO[C@@H]1C[C@@H]2O` (some centres not stated) the same measures were 0.91 and 0.29.
Regarding `CC(=O)O[C@H]1C(=O)[C@@]2(C)C([C@H](OC(=O)c3ccccc3)[C@]3(O)C[C@H](OC(=O)[C@H](O)C(NC(=O)OC(C)(C)C)c4ccccc4)C(C)=C1C3(C)C)[C@]1(OC(C)=O)CO[C@@H]1C[C@@H]2O` (some centres not stated), the Ratio turned out to be 0.23 with B16 and 0.55 in test [1].
`CC(=O)O[C@H]1C(=O)[C@@]2(C)C([C@H](OC(=O)C3CCCCC3)[C@]3(O)C[C@H](OC(=O)[C@H](O)C(NC(=O)OC(C)(C)C)c4ccccc4)C(C)=C1C3(C)C)[C@]1(OC(C)=O)CO[C@@H]1C[C@@H]2O` (some centres not stated): the Ratio in the test on B16 was determined as 1.1; in test [1], 0.67.
Regarding `CC(=O)O[C@@]12CO[C@@H]1C[C@H](O)[C@@]1(C)C(=O)[C@H](O)C3=C(C)[C@@H](OC(=O)[C@H](O)[C@@H](NC(=O)OC(C)(C)C)c4ccccc4)C[C@@](O)([C@@H](OC(=O)c4ccccc4)[C@H]21)C3(C)C.O.O.O` [DOCETAXEL], the Ratio in the test with B16 is reported as 0.41; in test [1], 0.45.
As for `CC(=O)O[C@H]1C(=O)[C@@]2(C)[C@H]([C@H](OC(=O)c3ccccc3)[C@]3(O)C[C@H](OC(=O)[C@H](O)[C@@H](NC(=O)c4ccccc4)c4ccccc4)C(C)=C1C3(C)C)[C@]1(OC(C)=O)CO[C@@H]1C[C@@H]2O` [PACLITAXEL], the Ratio (in the test with B16; in test [1]) was 1 in each case.
